Data as given in US20260085081A1, “PHOSPHATIDYLAMINE COMPOUNDS INCLUDING A PLURALITY OF TERTIARY AMINO GROUP STRUCTURES AND COMPOSITIONS THEREOF” (PEKING UNIVERSITY, priority 2022, published 2026).

Key:
white adipocyte = experiment: White adipocyte administration, expression relative to SM102; format: cell-based; conditions: for White adipocyte administration (PL/SM102) expression strength level: ratio of expression PL/SM102; for expression compared with control SM102: white adipocyte administration
Description: (§1) Finally, the expression levels of lipid nanoparticles with a plurality of tertiary amine groups from the embodiments of the present disclosure after intramuscular injection, white adipocyte administration, and intraperitoneal injection are summarized, and compared with lipid nanoparticles prepared from commercially available cationic lipids MC3 and SM102. […] However, the expression rates of the phosphatidylamine lipids with a plurality of tertiary amine groups from embodiments of the present disclosure are higher than that of SM102.

adipose tissue = experiment: Intraperitoneal injection of Fluc-mRNA LNPs, expression and distribution; format: in vivo, mice; conditions: for Intraperitoneal injection (PL/SM102) expression strength level: ratio of expression PL/SM102; for expression compared with control SM102: intraperitoneal injection
Protocol: FIG. 10 illustrates the effect of Fluc-mRNA LNPs composed of different structural cationic lipids on the mRNA delivery efficiency after intraperitoneal administration according to some embodiments of the present disclosure. Targeting and expression of PL lipids on adipose tissue after intraperitoneal administration is also evaluated. […] That is to say, the PL lipid structure with the plurality of tertiary amino group structures may enhance the selective targeting of visceral adipocytes. […]
as §1

[1] = Summary of the strongest expressions over the administration routes; conditions: strongest level of the three administrations
Description: as §1

[2] = test system: Fluc-mRNA (luciferase expression); experiment: In vivo transfection efficiency of Fluc-mRNA lipid nanoparticles after intramuscular injection; set-up: species or system mice; conditions: for Intramuscular injection (PL/MC3) expression strength level: ratio of expression PL/MC3; for expression in vivo compared with control MC3: DOPE group, weight ratio 10:1; for expression in vivo compared with control MC3 / in vivo transfection (expression, FIG. 5): 3 μg Fluc-mRNA/mouse; for in vivo transfection (expression, FIG. 5): weight ratio lipid nanoparticle/RNA 10:1, DOPE or DSPC group
Protocol: 6 h after intramuscular injection of mRNA LNPs, mice were injected intraperitoneally with 0.2 mL […] (20 mg/mL PBS solution). After 10 min, mice were anesthetized with isoflurane in oxygen in a ventilated anesthesia room and imaged with an imaging system (IVIS, PerkinElmer), and luminescence was quantified using Living Image software (PerkinElmer).

| Compound | White adipocyte administration (PL/SM102) expression strength level (white adipocyte) | Intraperitoneal injection (PL/SM102) expression strength level (adipose tissue) | Summary of the strongest expressions [1] | expression compared with control SM102 (white adipocyte) | Intramuscular injection (PL/MC3) expression strength level [2] | expression in vivo compared with control MC3 [2] | in vivo transfection (expression, FIG. 5) [2] | expression compared with control SM102 (adipose tissue) |
| --- | --- | --- | --- | --- | --- | --- | --- | --- |
| CC/C=C\C/C=C\C/C=C\C/C=C\C/C=C\CCCC(=O)OCCCCCCOP(=O)(NCCCN1CCN(CCCN(CCCCCCCCCCCC)CCCCCCCCCCCC)CC1)OCCCCCCOC(=O)CCC/C=C\C/C=C\C/C=C\C/C=C\C/C=C\CC [PL60] | C (C: ≥0.1 and <1) | D (D: <0.1) | C (C: ≥0.1 and <1) |  |  |  |  |  |
| CCCCC/C=C\C/C=C\CCCCCCCCOP(=O)(NCCCN(CCCCCCCCCCCC)CCc1ccc(CCN(C)C)cc1)OCCCCCCCC/C=C\C/C=C\CCCCC [PL21] | B (B: ≥1 and <2) | C (C: ≥0.1 and <1) | B (B: ≥1 and <2) | superior to that of the control SM102 |  |  |  |  |
| CCCCC/C=C\C/C=C\CCCCCCCCOP(=O)(NCCCN1CCN(CCCNCC(CCCCCC)CCCCCCCC)CC1)OCCCCCCCC/C=C\C/C=C\CCCCC (stereo not drawn) [PL44] | C (C: ≥0.1 and <1) |  | C (C: ≥0.1 and <1) |  | C (C: ≥0.1 and <1) |  |  |  |
| CCCCCCCCCCCCN(CCCCCCCCCCCC)CCCN1CCN(CCCNP(=O)(OCCCCCCCC(=O)OC(CCCCCCCC)CCCCCCCC)OCCCCCCCC(=O)OC(CCCCCCCC)CCCCCCCC)CC1 [PL31] | D (D: <0.1) |  | A (A: ≥2) |  | A (A: ≥2) | better than that of control MC3 | expressed |  |
| CCCCCCCC/C=C\CCOC(=O)CCCOP(=O)(NCCN(CCCCCCCCCCCC)CCCN(C)C)OCCCC(=O)OCC/C=C\CCCCCCCC [PL13] | D (D: <0.1) |  | A (A: ≥2) |  | A (A: ≥2) |  | expressed |  |
| CCCCCCCCCCCCN(CCCCCCCCCCCC)CCCN1CCN(CCCNP(=O)(OCCCCCCCC(=O)OC(C)CC(=O)OCC)OCCCCCCCC(=O)OC(C)CC(=O)OCC)CC1 (stereo not drawn) [PL97] |  | C (C: ≥0.1 and <1) | C (C: ≥0.1 and <1) |  |  |  |  |  |
| CCCCC/C=C\C/C=C\CCCCCCCCOP(=O)(NCCN(CCN(CCN(C)C)CC(O)CCCCCCCCCC)CC(O)CCCCCCCCCC)OCCCCCCCC/C=C\C/C=C\CCCCC (stereo not drawn) [PL20] | B (B: ≥1 and <2) | B (B: ≥1 and <2) | B (B: ≥1 and <2) | superior to that of the control SM102 |  |  |  | superior to that of the control SM102 |
| CCCCCCCCC(CCCCCCCC)OC(=O)CCCCCCCOP(=O)(NCCCN1CCN(CCCN(CCCCCCCC(=O)OC(CCCCCCCC)CCCCCCCC)CCCCCCCC(=O)OC(CCCCCCCC)CCCCCCCC)CC1)OCCCCCCCC(=O)OC(CCCCCCCC)CCCCCCCC [PL38] | C (C: ≥0.1 and <1) | D (D: <0.1) | C (C: ≥0.1 and <1) |  |  |  |  |  |
| CCCCC/C=C\C/C=C\CCCCCCCCOP(=O)(NCCCN1CCN(CCCN(CCCCCCCCCCCC)CCCCCCCCCCCC)CC1)OCCCCCCCC(=O)OC(CCCCCCCC)CCCCCCCC (stereo not drawn) [PL30] | D (D: <0.1) |  | A (A: ≥2) |  | A (A: ≥2) | better than that of control MC3 | expressed |  |
| CCC/C=C\C/C=C\C/C=C\C/C=C\C/C=C\C/C=C\CCC(=O)OCCCCCCOP(=O)(NCCCN1CCN(CCCN(CCCCCCCCCCCC)CCCCCCCCCCCC)CC1)OCCCCCCOC(=O)CC/C=C\C/C=C\C/C=C\C/C=C\C/C=C\C/C=C\CCC [PL61] | C (C: ≥0.1 and <1) | D (D: <0.1) | C (C: ≥0.1 and <1) |  |  |  |  |  |
| CCCCCCCCCCC(CCCCCCCCCC)CN(CCCN1CCN(CCCNP(=O)(OCCCCCCCC(=O)OC(CCCCCCCC)CCCCCCCC)OCCCCCCCC(=O)OC(CCCCCCCC)CCCCCCCC)CC1)CC(CCCCCCCCCC)CCCCCCCCCC [PL36] | C (C: ≥0.1 and <1) |  | C (C: ≥0.1 and <1) |  |  |  |  |  |
| CCCCC/C=C\C/C=C\C/C=C\CCCCC(=O)OCCOP(=O)(NCCCN1CCN(CCCN(CCCCCCCCCCCC)CCCCCCCCCCCC)CC1)OCCOC(=O)CCCC/C=C\C/C=C\C/C=C\CCCCC [PL93] |  | A (A: ≥2) | A (A: ≥2) |  |  |  |  | superior to that of the control SM102 |
| CCCCC/C=C\C/C=C\CCCCCCCCOP(=O)(NCCCN1CCN(CCCN(CCCCCCC(=O)OC(CCCCCCCC)CCCCCCCC)CCCCCCC(=O)OC(CCCCCCCC)CCCCCCCC)CC1)OCCCCCCCC/C=C\C/C=C\CCCCC [PL28] | C (C: ≥0.1 and <1) |  | A (A: ≥2) |  | A (A: ≥2) |  | expressed |  |
| CCCCC/C=C\C/C=C\CCCCCCCCOP(=O)(NCCN1CCN(CCOC(=O)CCN(CCCCCCCCCCCC)CCCCCCCCCCCC)CC1)OCCCCCCCC/C=C\C/C=C\CCCCC [PL26] | C (C: ≥0.1 and <1) |  | A (A: ≥2) |  | A (A: ≥2) | better than that of control MC3 | expressed |  |
| CCCCC/C=C\C/C=C\CCCCCCCCOP(=O)(NCCCN1CCN(CCCN(CCCCCCC(=O)OC(CC)CCCCCCCC)CCCCCCC(=O)OC(CC)CCCCCCCC)CC1)OCCCCCCCC/C=C\C/C=C\CCCCC (stereo not drawn) [PL29] | B (B: ≥1 and <2) |  | A (A: ≥2) | superior to that of the control SM102 | A (A: ≥2) | better than that of control MC3 | expressed |  |
| CCCCCCCCCCCCN(CCCCCCCCCCCC)CCCN1CCN(CCCNP(=O)(OCCC(C)CCCC(C)CCCC(C)CCCC(C)C)OCCC(C)CCCC(C)CCCC(C)CCCC(C)C)CC1 (stereo not drawn) [PL95] |  | A (A: ≥2) | A (A: ≥2) |  |  |  |  | superior to that of the control SM102 |
| CCCCCCCCCCCCN(CCCCCCCCCCCC)CCCN1CCN(CCCNP(=O)(OCCOC(=O)CC(C)CCCC(C)CCCC(C)CCCC(C)C)OCCOC(=O)CC(C)CCCC(C)CCCC(C)CCCC(C)C)CC1 (stereo not drawn) [PL96] |  | C (C: ≥0.1 and <1) | C (C: ≥0.1 and <1) |  |  |  |  |  |
| CCCCCCCCCCC(CCCCCCCCCC)CNCCCN1CCN(CCCNP(=O)(OCCCCCCCC(=O)OC(CCCCCCCC)CCCCCCCC)OCCCCCCCC(=O)OC(CCCCCCCC)CCCCCCCC)CC1 [PL41] | C (C: ≥0.1 and <1) |  | A (A: ≥2) |  | A (A: ≥2) |  | expressed |  |
| CCCCCCCCCCCCN(CCCCCCCCCCCC)CCCN1CCN(CCCNP(=O)(OCC(CCCCCC)CCCCCCCC)OCC(CCCCCC)CCCCCCCC)CC1 (stereo not drawn) [PL33] |  |  | A (A: ≥2) |  | A (A: ≥2) |  | expressed |  |
| CCCCCCCCCCCCN(CCCCCCCCCCCC)CCCN1CCN(CCCNP(=O)(OCCCCCCCC(=O)OC(CC)CCCCCCCC)OCCCCCCCC(=O)OC(CC)CCCCCCCC)CC1 (stereo not drawn) [PL32] |  |  | A (A: ≥2) |  | A (A: ≥2) |  | expressed |  |
| CCCCCCCCC(CCCCCC)CNCCCN1CCN(CCCNP(=O)(OCC(CCCCCC)CCCCCCCC)OCC(CCCCCC)CCCCCCCC)CC1 (stereo not drawn) [PL45] | C (C: ≥0.1 and <1) |  | C (C: ≥0.1 and <1) |  | C (C: ≥0.1 and <1) |  |  |  |
| CCCCC/C=C\C/C=C\CCCCCCCCOP(=O)(NCCCN1CCN(CCCN(CCCCCCCCCCCC)CCCCCCCCCCCC)CC1)OCCCCCCCC(=O)OC(CC)CCCCCCCC (stereo not drawn) [PL103] |  |  | A (A: ≥2) |  | A (A: ≥2) |  | expressed |  |
| CCCCC/C=C\C/C=C\C/C=C\CCCCCOP(=O)(NCCCN1CCN(CCCN(CCCCCCCCCCCC)CCCCCCCCCCCC)CC1)OCCCCC/C=C\C/C=C\C/C=C\CCCCC [PL94] |  | A (A: ≥2) | A (A: ≥2) |  |  |  |  | superior to that of the control SM102 |
